The values that follow come from patent publication US20140051729A1, “COMPOSITIONS AND METHODS FOR TREATING DEGENERATIVE MUSCLE CONDITIONS” (University of Washington, priority 2011, published 2014).

Molecules are shown by their SMILES.

In one experiment the test system is S1P level. Nature of the experiment: S1P levels in tissues of CTX injured mdx mice after IP THI. It counts as in vivo, mouse. As to conditions: 5-month-old mdx males, IP THI 5 times during 3 days, day 4 post CTX, vs vehicle. How it is done:
(a) Experimental schematic of THI (0.075 μg/day) and PBS (vehicle) treated mdx mice injected intraperitoneally (IP) twice daily for the first 72 hours following cardiotoxin (CTX) injury. Muscles, spleen or plasma from 5MO (n=6) mdx males were harvested for S1P and creatin kinase (CK) analysis at day 4 post CTX injury. Muscles from aged mdx mice (n=7 THI treated: 3 11MO females, 4 16MO males. n=6 vehicle: 3 11MO females, 3 16MO males) were harvested for histopathology analysis 18 days post CTX injury. […] (d) Quantification of Picrosirius Red staining indicates reduced fibrosis following injury in both Tibialis Anterior (TA) and Quadriceps (Quads) muscles in mice treated with THI. […] Scale bars=50 μm. (f) Oil Red-O staining depicts fat deposits (arrows) over the entire cross-sectional area of THI treated and control injured TAs. […] Error bars represent SEM.
The effects of THI in the dystrophic mdx mouse model were studied. […] THI was administered intraperitoneally (IP) to three groups of mdx mice. Right tibialis anterior (TA) and quadriceps muscles were uninjured, while left counterparts were injured using CTX, a well characterized model of acute injury where initial muscle destruction is followed by a rapid myogenic response. […] The effects of THI administration on the plasma creatine kinase (CK) activity level was also measured.

For another experiment, the system named is mdx mice. Nature of the experiment: Histopathology of CTX injured and uninjured muscles of aged mdx mice after IP THI. It is filed as in vivo, mouse. The procedure:
Muscle repair in mdx mice become impaired during aging resulting in muscle atrophy and dystrophy. The effects of THI on the histopathology were assessed in injured and uninjured muscles from two groups of aged mdx mice (n=6, 11 month-old females and n=7, 16 month-old males). In this experiment, right TAs and quadriceps muscles were uninjured, while left counterparts were injured using CTX. The mdx mice were injected with THI, or PBS as a vehicle control, immediately following injury with CTX 5 times during a 3-day period. Injured and uninjured muscles were harvested 18 days post injury to survey the effects of THI on muscle repair. […] Injured muscles were lighter than uninjured muscles in vehicle treated mice, an approximate weight loss of 20% (*p<0.05).
The left TAs and quadriceps of six, 10 month old female mdx4cv mice were injected with 50 μl and 100 μl CTX respectively. Three mice were injected IP with 0.15 mg/ml THI in PBS, twice daily (injections 8 hours apart) immediately after and for the first three days following injury. The three remaining animals were injected IP with PBS as vehicle controls. 1% Evans Blue dye was injected IV on day 17 post CTX, to label persistently damaged (dye permeable) muscle fibers. Animals were euthanized 18 days post injury and muscles were frozen under liquid nitrogen cooled isopentane in optimal cutting temperature (OCT). All myofibers were measured for the minimum diameters on the cross-sections of mouse quadriceps muscle using image J software. 750˜850 myofibers were counted for three mice treated with PBS or THI with or without CTX injury.
All mouse muscles were frozen directly in OCT with liquid nitrogen cooled in isopentane and sections of 8 μm thickness were obtained. Tissue for x-gal staining, was fixed for 10 min with 2% formaldehyde/0.2% glutaraldehyde and incubated overnight at 37° C. with staining buffer (PBS with 1 mg/ml x-gal, 5 mM potassium ferricyanide, 5 mM potassium ferrocyanide, and 2 mM […] (all from Fisher). Oil Red-O and Picrosirius red staining were done following established protocols. For eMyHC staining, tissue was first fixed with 2% formaldehyde for 5 min, treated with streptavidin/avidin blocking kit (Vector labs), and blocked with IgG block from M.O.M kit (Vector Labs) for 5 hrs at 4° C. Following blockade, concentrated mouse anti-eMyHC (clone F1.652 received at 357 μg/ml IgG) obtained from the developmental studies hybridoma bank (DHSB, University of Iowa) was administered at 1:400 dilution, overnight at 4° C. The remainder of the staining was done following mouse-on-mouse (M.O.M) kit staining instructions. For laminin staining tissue was also fixed with 2% formaldehyde for 5 min, and then treated with polyclonal rabbit anti-laminin (Sigma) for 1 hr at a 1:400 dilution in PBS+1% BSA. Following washes, Alexa Fluor 488 conjugated goat anti-rabbit IgG (Invitrogen) was administered at 1:800 dilution for 1 hr. Controls omitting the primary antibody were included with all staining. Staining quantifications were all done using ImageJ v1.40 (Wayne Rasband, NIH) cell counter plugin (Kurt De Vos, University of Sheffield). Calculations, statistics, and graphs were generated with Microsoft Excel. Brightfield photographs were captured using either a Fisher Micromaster digital inverted or upright microscopes with Micron software. Fluorescent photographs were captured with a monochromatic camera using a Zeiss Axiovert 200 microscope. Individual fluorescent channels were colored and merged using Adobe Photoshop CS2. Brightness contrast levels were adjusted to increase visibility and reduce background in most photographs.
Both stainings were done using freshly frozen mdx muscles. Pax7 staining was done as outlined by Clever et al., with slight modification (Clever J L, et al. Am J Physiol Cell Physiol. 2010; 298:C1087-C1099). Sections were fixed overnight in 4% formaldehyde (from PFA powder) at 4° C. […]

Where [1] appears, read: 11MO and 16MO mdx mice, Oil Red-O.
[2] abbreviates: 11MO mdx mice, dye injected day 17 post injury.
Setting [3] is: 11 month-old mdx mice, vs vehicle.
Where [4] appears, read: aged mdx mice, 18 days post CTX injury, vs vehicle.

As for `CC(=O)c1ncc([C@@H](O)[C@H](O)[C@H](O)CO)[nH]1` [THI, 1-[5-[(1R,2S,3R)-1,2,3,4-tetrahydroxybutyl]-1H-imidazol-2-yl]-ethanone], in the experiment on S1P level, the “S1P level in CTX injured quadriceps” value is reported as “significantly increased” and the “S1P level in spleen tissue” value is listed as “significantly increased”. Also, in the experiment with mdx mice (setting [1]), the “ratio of fat deposition in injured TAs over uninjured contralateral TAs” value is on record as “significantly reduced in THI treated vs. control animals in 11MO (*) but not 16 MO mdx mice” and the “ratio of injured over uninjured fat deposits in quadriceps” value is “significantly reduced in 16MO (#) but not in the 11MO mdx mice”. In the experiment with mdx mice (setting [2]), the “Evans Blue positive fibers in injured quadriceps over entire cross-sectional area” value is < 5 and the “Evans Blue positive fibers in uninjured contralateral quadriceps” value is “almost zero”. Further, in the experiment on mdx mice (setting [3]), the “mean number of satellite cells (Pax7+ nuclei) in limb muscles (TAs and Quadriceps)” value is reported as “significant increase”; the “minimum fiber diameter, uninjured and injured quadriceps and diaphragms” value is given as “significant increase”. Besides, the “ratio of dry weight of CTX injured over uninjured quadriceps, normalized to body weight” value in the experiment with mdx mice (16 month-old mdx males, 18 days post injury) is on record as “ratio close to one”. In the experiment with mdx mice (16 month-old mdx males, vs vehicle), the “muscle fiber size, uninjured quadriceps” value was “significant increase”. In addition, the “overall histological muscle morphology of injured muscles” value in the experiment on mdx mice (aged mdx mice, 18 days post CTX injury) was “more organized”. In addition, in the experiment on mdx mice (setting [4]), the “average fat deposition in injured TAs (Oil Red-O)” value was “significantly lower average fat deposition”; the “fibrosis in injured TAs and quadriceps muscles (Picrosirius Red)” value was “significantly reduced fibrosis”.
